Experimental data published in article PMC7150870 (Toxins, 2020).
Marks after values point to notes of the source that are not given here.

Key:
P-gp = P-gp (Homo sapiens, UniProt P08183)
cells = details: cited from earlier work
in vitro = details: human (HepG2, Caco-2, HEK 293T); mouse (RAW 264.7)
HEK293T = type: cell-based, human
Caco-2 cells [1] = details: human (Caco-2), mouse (RAW 264.7)
[2] = test system: human colon adenocarcinoma HT29 cells; details: cited from earlier work
Caco-2 cells [3] = details: cited from earlier work
epithelial cell layers = details: after 24 h; cited from earlier work
[4] = test system: TK6, and human hepatic HepaRG cells; details: 25 µM; cited from earlier work
mice = details: mouse, in vivo, po; cited from earlier work
Caco-2 cells [5] = details: cited from earlier work; remark: listed apart in the source
HEK293 cells = details: for 2 h; cited from earlier work
[6] = test system: human small intestinal cells; details: read-out: IC50 (not achieved up to); cited from earlier work

Sequence of P-gp (P08183 whole entry, looked up): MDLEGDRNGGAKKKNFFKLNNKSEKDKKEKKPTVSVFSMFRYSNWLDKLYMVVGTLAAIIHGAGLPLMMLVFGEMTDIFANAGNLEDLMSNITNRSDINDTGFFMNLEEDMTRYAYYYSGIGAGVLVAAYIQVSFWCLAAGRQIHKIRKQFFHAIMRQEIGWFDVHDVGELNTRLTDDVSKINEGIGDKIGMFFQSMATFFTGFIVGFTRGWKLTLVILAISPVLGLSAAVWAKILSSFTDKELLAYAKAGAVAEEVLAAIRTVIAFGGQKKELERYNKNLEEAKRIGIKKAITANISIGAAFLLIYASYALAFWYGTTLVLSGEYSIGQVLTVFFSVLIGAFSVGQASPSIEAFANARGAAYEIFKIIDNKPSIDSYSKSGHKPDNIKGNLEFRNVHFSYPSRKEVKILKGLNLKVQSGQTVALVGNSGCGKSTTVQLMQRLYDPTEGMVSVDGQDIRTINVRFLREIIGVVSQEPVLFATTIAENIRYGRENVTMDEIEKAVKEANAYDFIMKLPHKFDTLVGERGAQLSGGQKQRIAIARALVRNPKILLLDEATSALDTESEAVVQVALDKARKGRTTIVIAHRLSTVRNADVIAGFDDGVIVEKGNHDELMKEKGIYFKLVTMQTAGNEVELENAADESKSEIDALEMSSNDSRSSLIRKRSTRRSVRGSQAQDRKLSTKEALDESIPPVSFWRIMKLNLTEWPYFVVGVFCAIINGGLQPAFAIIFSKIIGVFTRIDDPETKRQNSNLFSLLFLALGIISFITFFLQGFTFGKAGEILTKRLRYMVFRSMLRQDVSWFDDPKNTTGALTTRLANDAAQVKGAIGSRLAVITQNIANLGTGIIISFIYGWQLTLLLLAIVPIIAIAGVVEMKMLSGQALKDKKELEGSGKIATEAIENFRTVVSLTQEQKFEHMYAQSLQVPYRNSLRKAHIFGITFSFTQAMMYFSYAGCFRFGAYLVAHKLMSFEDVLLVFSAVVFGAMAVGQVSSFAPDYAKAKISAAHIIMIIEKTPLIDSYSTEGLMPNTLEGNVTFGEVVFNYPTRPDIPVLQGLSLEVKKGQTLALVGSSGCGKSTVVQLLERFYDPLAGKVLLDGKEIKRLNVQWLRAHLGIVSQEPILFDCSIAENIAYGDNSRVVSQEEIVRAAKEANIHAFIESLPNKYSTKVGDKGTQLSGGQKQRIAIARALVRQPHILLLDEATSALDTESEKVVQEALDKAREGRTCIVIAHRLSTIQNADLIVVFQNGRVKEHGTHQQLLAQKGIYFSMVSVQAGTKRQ

SMILES | P-gp activation (ATP consumption) (P-gp) | percentage of DNA in comet tail with respect to the negative control (HEK 293T cells) | concentration with statistically significant decrease in viability of cells (cells) [µM] | IC50 (in vitro) [nM] | combination index, mixture of DAS (6.58 nM) (HEK293T) | combination index, mixture of HT-2 (21.22 nM) (HEK293T) | combination index, mixture of T-2 (3.87 nM) (HEK293T) | type of interaction, mixture of DAS (6.58 nM) (HEK293T) | type of interaction, mixture of HT-2 (21.22 nM) (HEK293T) | type of interaction, mixture of T-2 (3.87 nM) (HEK293T) | transepithelial transport, Apical Medium (Caco-2 cells [1]) | transepithelial transport, Basolateral Medium (Caco-2 cells [1]) | transepithelial transport, Caco-2 Cells (Caco-2 cells [1]) | transepithelial transport, Raw 264.7 Cells (Caco-2 cells [1]) | transepithelial transport, Total (Caco-2 cells [1]) | also measured
Cc1cc(O)cc2oc(=O)c3c(O)cc(O)cc3c12 [AOH, alternariol] | activated P-gp in dose-dependent manner | significantly increased | 50 | > 50 | 0.91 ± 0.07 Add | 0.92 ± 0.02 Add | 1.00 ± 0.09 Add | 0.91 ± 0.07 Add (key: Syn: Combination index (CI) < 0.9; Add: 0.9 ≤ CI ≤ 1; Ant: CI > 1) | 0.92 ± 0.02 Add (key: Syn: Combination index (CI) < 0.9; Add: 0.9 ≤ CI ≤ 1; Ant: CI > 1) | 1.00 ± 0.09 Add (key: Syn: Combination index (CI) < 0.9; Add: 0.9 ≤ CI ≤ 1; Ant: CI > 1) | 39.00 ± 22.02^cd % | 59.97 ± 2.86^h % | 0.04 ± 0.02^a % | 0.07 ± 0.02^h % | 99.08 ± 24.47^e % | comet tails (percentage of DNA) (HEK 293T cells; 25 µM, 24 h): about 55%; metabolites found by non-target U-HPLC-MS analysis (Caco-2 cells [1]): 3-O-glucuronide and 9-O-glucuronide; concentrations significantly increasing the rate of DNA breaks [2]: ≥ 1000 nM
C[C@H]1CCC[C@H](O)CCC/C=C/c2cc(O)cc(O)c2C(=O)O1 [α-ZEA] |  |  |  |  |  |  |  |  |  |  |  |  |  |  |  | share of total metabolites produced by Caco-2 cells (Caco-2 cells [3]): 41%
CC1=C[C@H]2O[C@@H]3[C@H](O)C[C@](C)([C@@]2(CO)[C@H](O)C1=O)[C@]31CO1 [DON, deoxynivalenol] | activated P-gp in dose-dependent manner | significantly increased | 1 |  | 0.88 ± 0.17 Syn | 0.87 ± 0.04 Syn | 1.29 ± 0.13 Ant | 0.88 ± 0.17 Syn (key: Syn: Combination index (CI) < 0.9; Add: 0.9 ≤ CI ≤ 1; Ant: CI > 1) | 0.87 ± 0.04 Syn (key: Syn: Combination index (CI) < 0.9; Add: 0.9 ≤ CI ≤ 1; Ant: CI > 1) | 1.29 ± 0.13 Ant (key: Syn: Combination index (CI) < 0.9; Add: 0.9 ≤ CI ≤ 1; Ant: CI > 1) | 73.33 ± 2.90^f % | 21.48 ± 0.91^cde % | 0.00 ± 0.00^a % | 0.01 ± 0.00^a % | 94.83 ± 2.14^e % | transport through the epithelial cell layers (epithelial cell layers): up to 38%; genotoxicity [4]: failed to induce genotoxicity; LD50 for mice (mice): 46 to 78 mg/kg
CC(C)[C@H]1C(=O)O[C@H](C(C)C)C(=O)N(C)[C@@H](C(C)C)C(=O)O[C@H](C(C)C)C(=O)N(C)[C@@H](C(C)C)C(=O)O[C@H](C(C)C)C(=O)N1C [ENN-B, enniatin B] |  |  | 2 | > 50 | 0.79 ± 0.08 Syn | 0.87 ± 0.05 Syn | 1.11 ± 0.10 Ant | 0.79 ± 0.08 Syn (key: Syn: Combination index (CI) < 0.9; Add: 0.9 ≤ CI ≤ 1; Ant: CI > 1) | 0.87 ± 0.05 Syn (key: Syn: Combination index (CI) < 0.9; Add: 0.9 ≤ CI ≤ 1; Ant: CI > 1) | 1.11 ± 0.10 Ant (key: Syn: Combination index (CI) < 0.9; Add: 0.9 ≤ CI ≤ 1; Ant: CI > 1) | 24.08 ± 3.20^abc % | 25.49 ± 4.31^e % | 1.15 ± 0.25^b % | 0.31 ± 0.03^b % | 51.02 ± 7.70^bc % | genotoxic effect (Caco-2 cells [5]; 3 µM): did not show genotoxic effect; metabolites found by non-target U-HPLC-MS analysis (Caco-2 cells [1]): metabolite M6
C[C@H]1CCCC(=O)CCC/C=C/c2cc(O)cc(O)c2C(=O)O1 [ZEA, zearalenone] | activated P-gp in dose-dependent manner | no significant DNA damage | 25 | > 50 | 0.85 ± 0.07 Syn | 0.83 ± 0.03 Syn | 0.92 ± 0.01 Add | 0.85 ± 0.07 Syn (key: Syn: Combination index (CI) < 0.9; Add: 0.9 ≤ CI ≤ 1; Ant: CI > 1) | 0.83 ± 0.03 Syn (key: Syn: Combination index (CI) < 0.9; Add: 0.9 ≤ CI ≤ 1; Ant: CI > 1) | 0.92 ± 0.01 Add (key: Syn: Combination index (CI) < 0.9; Add: 0.9 ≤ CI ≤ 1; Ant: CI > 1) | 32.23 ± 1.71^bc % | 54.24 ± 2.38^gh % | 0.19 ± 0.01^ab % | 0.05 ± 0.01^a % | 86.70 ± 0.67^de % | concentration range damaging DNA in a concentration-dependent manner (HEK293 cells): 2500 to 20000 nM
CC[C@H](C)[C@H]1C(=O)O[C@H](C(C)C)C(=O)N(C)[C@@H](C(C)C)C(=O)O[C@H](C(C)C)C(=O)N(C)[C@@H](C(C)C)C(=O)O[C@H](C(C)C)C(=O)N1C [ENN-B1, enniatin B1] |  |  | 2 | > 50 | 0.82 ± 0.06 Syn | 0.90 ± 0.05 Add | 0.88 ± 0.07 Syn | 0.82 ± 0.06 Syn (key: Syn: Combination index (CI) < 0.9; Add: 0.9 ≤ CI ≤ 1; Ant: CI > 1) | 0.90 ± 0.05 Add (key: Syn: Combination index (CI) < 0.9; Add: 0.9 ≤ CI ≤ 1; Ant: CI > 1) | 0.88 ± 0.07 Syn (key: Syn: Combination index (CI) < 0.9; Add: 0.9 ≤ CI ≤ 1; Ant: CI > 1) | 10.46 ± 2.43^a % | 28.16 ± 3.37^e % | 0.51 ± 0.03^ab % | 0.60 ± 0.10^c % | 39.72 ± 4.74^ab % | concentration with significant DNA damage (Caco-2 cells [5]): 3000 nM
C[C@H]1CCC[C@@H](O)CCC/C=C/c2cc(O)cc(O)c2C(=O)O1 [β-ZEA] |  |  |  |  |  |  |  |  |  |  |  |  |  |  |  | share of total metabolites produced by Caco-2 cells (Caco-2 cells [3]): 32%
COc1c(C)c2c(c(O)c1C/C=C(\C)CCC(=O)O)C(=O)OC2 [MPA, mycophenolic acid, reference compound] |  | no significant DNA damage |  | > 50 | 0.83 ± 0.07 Syn | 0.90 ± 0.04 Add | 0.85 ± 0.05 Syn | 0.83 ± 0.07 Syn (key: Syn: Combination index (CI) < 0.9; Add: 0.9 ≤ CI ≤ 1; Ant: CI > 1) | 0.90 ± 0.04 Add (key: Syn: Combination index (CI) < 0.9; Add: 0.9 ≤ CI ≤ 1; Ant: CI > 1) | 0.85 ± 0.05 Syn (key: Syn: Combination index (CI) < 0.9; Add: 0.9 ≤ CI ≤ 1; Ant: CI > 1) | 57.27 ± 0.79^ef % | 39.77 ± 0.52^f % | 0.00 ± 0.00^a % | 0.02 ± 0.00^a % | 97.07 ± 0.27^e % | IC50 [6]: > 156 nM
